According to PubChem BioAssay AID248 (DTP/NCI, 2004):
Several values for one entry are separate records, joined by “and”; a condition that tells them apart may be missing. Identical values can stand only once. Inconclusive results and toxic doses are left out. No stated cut-off is given here; in the data, active means T/C of 150% or more; inactive means T/C below 125%.

Tested on: L1210 leukemia ip in BDF1 mice, survival T/C
Test: NCI In Vivo Anticancer Drug Screen. Data for tumor model L1210 Leukemia (intraperitoneal) in B6D2F1 (BDF1) mice
Conditions: endpoint: mean survival time, higher = longer survival
Procedure, shortened: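 Transplanted-tumor mice were given test agent; controls received vehicle only. Survival readings from the two groups were divided (treated over control).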

[1] = dose: 25.0 mg/kg/injection, schedule: Q04DX003 (ip), vehicle: Klucel (hydroxypropylcellulose) (HPC)
[2] = dose: 100.0 mg/kg/injection, schedule: Q04DX003 (ip), vehicle: Klucel (hydroxypropylcellulose) (HPC)
[3] = dose: 100.0 mg/kg/injection, schedule: Q01DX009 (ip), vehicle: saline with Tween-80
[4] = dose: 200.0 mg/kg/injection, schedule: Q01DX009 (ip), vehicle: saline with Tween-80
[5] = dose: 100.0 mg/kg/injection, schedule: Q01DX009 (ip), vehicle: Klucel (hydroxypropylcellulose) (HPC)
[6] = dose: 100.0 mg/kg/injection, schedule: Q04DX003 (ip), vehicle: saline
[7] = dose: 200.0 mg/kg/injection, schedule: Q01DX009 (ip), vehicle: Klucel (hydroxypropylcellulose) (HPC)
[8] = dose: 200.0 mg/kg/injection, schedule: Q04DX003 (ip), vehicle: saline
[9] = dose: 400.0 mg/kg/injection, schedule: Q01DX009 (ip), vehicle: Klucel (hydroxypropylcellulose) (HPC)
[10] = dose: 100.0 mg/kg/injection, schedule: Q01DX001 (ip), vehicle: saline
[11] = dose: 200.0 mg/kg/injection, schedule: Q01DX001 (ip), vehicle: saline
[12] = dose: 100.0 mg/kg/injection, schedule: Q04DX002 (ip), vehicle: gum acacia
[13] = dose: 200.0 mg/kg/injection, schedule: Q04DX002 (ip), vehicle: gum acacia
[14] = dose: 25.0 mg/kg/injection, schedule: Q01DX009 (ip), vehicle: saline
[15] = dose: 50.0 mg/kg/injection, schedule: Q01DX009 (ip), vehicle: saline
[16] = dose: 100.0 mg/kg/injection, schedule: Q01DX009 (ip), vehicle: saline
[17] = dose: 100.0 mg/kg/injection, schedule: Q04DX003 (ip), vehicle: other
[18] = dose: 200.0 mg/kg/injection, schedule: Q04DX003 (ip), vehicle: other
[19] = dose: 400.0 mg/kg/injection, schedule: Q04DX003 (ip), vehicle: other
[20] = dose: 100.0 mg/kg/injection, schedule: Q04DX003 (ip), vehicle: saline with Tween-80
[21] = dose: 200.0 mg/kg/injection, schedule: Q04DX003 (ip), vehicle: saline with Tween-80
[22] = dose: 400.0 mg/kg/injection, schedule: Q04DX003 (ip), vehicle: saline with Tween-80
[23] = dose: 200.0 mg/kg/injection, schedule: Q04DX003 (ip), vehicle: Klucel (hydroxypropylcellulose) (HPC)
[24] = dose: 400.0 mg/kg/injection, schedule: Q04DX003 (ip), vehicle: Klucel (hydroxypropylcellulose) (HPC)
[25] = dose: 400.0 mg/kg/injection, schedule: Q01DX001 (ip), vehicle: saline

Measured: T/C

COC(=O)CCN1CC1(C)C (configuration not stated)
inactive: [1] 96 % of control | dose: 50.0 mg/kg/injection, schedule: Q04DX003 (ip), vehicle: Klucel (hydroxypropylcellulose) (HPC) 98 % of control | [2] 96 % of control

CCOC(=O)/C=C\COC(=O)CC#N
inactive: [3] 102 % of control | [4] 107 % of control | dose: 400.0 mg/kg/injection, schedule: Q01DX009 (ip), vehicle: saline with Tween-80 98 % of control

Cc1c(Cl)cccc1NC(=O)c1ccccc1Cl
inactive: [5] 94 % of control | [6] 122 % of control | [7] 94 % of control | [8] 108 % of control | [9] 95 % of control | dose: 400.0 mg/kg/injection, schedule: Q04DX003 (ip), vehicle: saline 108 % of control

O=C(NC1CCCC1)c1ccc(C(=O)NC2CCCC2)cc1
inactive: [10] 91 % of control | [11] 91 % of control

O=C(Nc1ccc(Cl)cc1)Oc1c(Cl)cc(Cl)c(Cl)c1[N+](=O)[O-]
inactive: [12] 94 % of control | [13] 88 % of control

CCOC(=O)CNC(=O)NCc1ccc2c(c1)OCO2
inactive: [3] 98 % of control | [4] 90 % of control

NC(N)=Nc1ccc(C(=O)Oc2ccc([N+](=O)[O-])cc2Cl)cc1
inactive: [14] 94 % of control | [15] 97 % of control | [16] 87 % of control | [6] 96 % of control | [8] 94 % of control

O=C1NC(=O)C2C3C(C(O)(c4ccccc4)c4ccccn4)=CC(/C3=C(\c3ccccc3)c3ccccn3)C12 (configuration not stated)
inactive: dose: 0.5 mg/kg/injection, schedule: Q01DX010 (ip), vehicle: saline 101 % of control | dose: 1.0 mg/kg/injection, schedule: Q01DX010 (ip), vehicle: saline 93 % of control | dose: 2.0 mg/kg/injection, schedule: Q01DX010 (ip), vehicle: saline 101 % of control | dose: 2.0 mg/kg/injection, schedule: Q01DX010 (oral), vehicle: saline 96 % of control | dose: 4.0 mg/kg/injection, schedule: Q01DX010 (ip), vehicle: saline 93 % of control | dose: 4.0 mg/kg/injection, schedule: Q01DX010 (oral), vehicle: saline 96 % of control | dose: 8.0 mg/kg/injection, schedule: Q01DX010 (oral), vehicle: saline 96 % of control | dose: 16.0 mg/kg/injection, schedule: Q01DX010 (oral), vehicle: saline 96 % of control | dose: 100.0 mg/kg/injection, schedule: Q01DX001 (ip), vehicle: carboxymethylcellulose (CMC) 98 % of control | dose: 200.0 mg/kg/injection, schedule: Q01DX001 (ip), vehicle: carboxymethylcellulose (CMC) 102 % of control | dose: 400.0 mg/kg/injection, schedule: Q01DX001 (ip), vehicle: carboxymethylcellulose (CMC) 104 % of control

CC(=O)c1cc2cc(Br)ccc2oc1=O
inactive: [5] 98 % of control | [7] 88 % of control | [9] 96 % of control

S=C(N/N=C\c1ccccc1)N/N=C/c1ccccc1
inactive: [12] 93 % of control | [13] 96 % of control | dose: 400.0 mg/kg/injection, schedule: Q04DX002 (ip), vehicle: gum acacia 93 % of control

O=C(OC1c2cccc3cccc(c23)C1O)c1ccccc1 (configuration not stated)
inactive: [17] 95 % of control | [18] 93 % of control | [19] 90 % of control

CCSc1c(Cl)c(Cl)c(Cl)c(Cl)c1Cl
inactive: [5] 97 % of control | [7] 100 % of control | [9] 87 % of control

CCC(C)NCCNCCNC(C)CC (configuration not stated)
inactive: dose: 6.25 mg/kg/injection, schedule: Q01DX009 (ip), vehicle: saline 101 % of control | dose: 6.25 mg/kg/injection, schedule: Q04DX003 (ip), vehicle: Klucel (hydroxypropylcellulose) (HPC) 102 % of control | dose: 12.5 mg/kg/injection, schedule: Q01DX009 (ip), vehicle: saline 108 % of control | dose: 12.5 mg/kg/injection, schedule: Q04DX003 (ip), vehicle: Klucel (hydroxypropylcellulose) (HPC) 102 % of control | [14] 90 % of control | [1] 109 % of control

C[N+](C)(C)C1(Cc2ccccc2)c2ccccc2-c2ccc(Br)cc21 (configuration not stated)
inactive: [14] 104 % of control | dose: 25.0 mg/kg/injection, schedule: Q04DX003 (ip), vehicle: saline 102 % of control | [15] 95 % of control | dose: 50.0 mg/kg/injection, schedule: Q04DX003 (ip), vehicle: saline 97 % of control | [16] 94 % of control | [6] 98 % of control and 100 % of control

CC(C)=NNC(=O)c1ccccc1
inactive: dose: 12.5 mg/kg/injection, schedule: Q04DX003 (ip), vehicle: saline with Tween-80 94 % of control | dose: 50.0 mg/kg/injection, schedule: Q01DX009 (ip), vehicle: saline with Tween-80 110 % of control | dose: 50.0 mg/kg/injection, schedule: Q04DX003 (ip), vehicle: saline with Tween-80 96 % of control | [3] 113 % of control | [20] 108 % of control and 110 % of control | [21] 124 % of control | [22] 96 % of control

COC(=O)C/C(=C\c1ccc(OC)c(OC)c1)C(=O)OC
inactive: [5] 100 % of control | [2] 91 % of control | [7] 94 % of control | [23] 95 % of control | [9] 103 % of control | [24] 96 % of control

COC(=O)C1C2CC(Br)C(Br)CC21 (configuration not stated)
inactive: [20] 94 % of control | [21] 94 % of control | [22] 94 % of control

COc1ccccc1CC=O
inactive: [10] 102 % of control | [11] 103 % of control | [25] 97 % of control

CCCC(NC(=O)CN)C(=O)O (configuration not stated)
inactive: dose: 50.0 mg/kg/injection, schedule: Q04DX002 (ip), vehicle: saline 96 % of control | dose: 100.0 mg/kg/injection, schedule: Q04DX002 (ip), vehicle: saline 101 % of control | dose: 200.0 mg/kg/injection, schedule: Q04DX002 (ip), vehicle: saline 96 % of control

CCOC(=O)CSCCC1CC(=O)N1 (configuration not stated)
inactive: [17] 103 % of control | [18] 104 % of control | [19] 107 % of control

CCOC(=O)C1=NN(c2ccccc2)C(=O)C1N=Nc1ccc(S(=O)(=O)Nc2ccccn2)cc1 (configuration not stated)
inactive: [10] 102 % of control | [11] 96 % of control | [25] 93 % of control

Cc1cc(C)n(-c2nn3nnnc3c3ccccc23)n1
inactive: dose: 62.5 mg/kg/injection, schedule: Q04DX003 (ip), vehicle: saline 101 % of control | dose: 125.0 mg/kg/injection, schedule: Q04DX003 (ip), vehicle: saline 95 % of control | dose: 250.0 mg/kg/injection, schedule: Q04DX003 (ip), vehicle: saline 93 % of control

O=C(NCCCl)Nc1cccc2c(O)cccc12
inactive: [2] 98 % of control | [23] 96 % of control | [24] 107 % of control
